Assay results from patent US20230295110A1, “PHD INHIBITOR COMPOUNDS, COMPOSITIONS, AND METHODS OF USE” (Akebia Therapeutics, Inc., priority 2020, published 2023).
Read-outs that look alike come from different tables or passages of the source.

Assays:
full-length human PHD1 = full-length human PHD1 (Homo sapiens (Human), UniProt Q96KS0); assay: TR-FRET assay for PHD enzymes, PHD1; format: biochemical; conditions: TR-FRET, 15 nM PHD1, 1 μM 2-OG
Description: PHD1 was expressed in a baculovirus expression system as the full-length protein (NCBI accession number NP_542770.2) with an N-terminal FLAG tag (molecular weight 44.9 kDa).

full-length human PHD3 = full-length human PHD3 (Homo sapiens (Human), UniProt Q9H6Z9); assay: TR-FRET assay for PHD enzymes, PHD3; format: biochemical
Description: Recombinant human PHD3 protein (molecular weight 31.1 kDa) was purchased from Active Motif (Carlsbad, CA, USA). It was expressed in E. coli as the full-length protein (NCBI accession number NP_071356.1) with an N-terminal 6-His tag (catalog #81033, Lot #24417001).

full-length human PHD2 = full-length human PHD2 (Homo sapiens (Human), UniProt Q9GZT9); assay: TR-FRET assay for PHD enzymes, PHD2; conditions: read-out: PHD2 IC50; TR-FRET, 5 nM PHD2, 1 μM 2-OG
Sequence of full-length human PHD2 (Q9GZT9 whole entry): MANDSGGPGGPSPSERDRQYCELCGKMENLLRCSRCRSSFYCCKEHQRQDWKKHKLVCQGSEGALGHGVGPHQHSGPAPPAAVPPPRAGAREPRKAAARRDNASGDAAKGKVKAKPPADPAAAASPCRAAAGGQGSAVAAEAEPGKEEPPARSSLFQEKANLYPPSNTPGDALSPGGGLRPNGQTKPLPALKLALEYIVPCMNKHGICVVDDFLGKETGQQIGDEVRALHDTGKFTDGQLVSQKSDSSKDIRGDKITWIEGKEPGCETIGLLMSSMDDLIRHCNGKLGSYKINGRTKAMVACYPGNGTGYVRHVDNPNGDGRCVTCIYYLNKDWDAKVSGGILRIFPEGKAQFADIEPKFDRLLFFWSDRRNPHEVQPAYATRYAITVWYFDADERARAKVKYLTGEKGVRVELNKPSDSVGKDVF
Description: Time-resolved fluorescence resonance energy transfer (TR-FRET) assay was utilized to determine the enzymatic half maximal inhibitory concentration (IC50) value of PHD inhibitors against the full-length human prolyl-4-hydroxylase domain (PHD) enzymes, PHD1, PHD2, and PHD3. The TR-FRET assay was developed based on the specific binding of hydroxylated HIF-1α peptide with the complex formed by VHL, EloB and EloC (VBC), to generate a fluorescent signal. Terbium (Tb)-Donor (monoclonal antibody anti-6His-Tb-cryptate Gold) and D2-acceptor (streptavidin [SA]-D2) of TR-FRET are linked to the VBC complex and to HIF-1α peptide, respectively. The VBC complex binds specifically to the HIF-1α peptide when it is hydroxylated, allowing energy transfer from TR-FRET donor to acceptor (FIG. 1). […] The plates were incubated for 30 minutes at room temperature without rotation. […] TR-FRET assays were performed in triplicate at each concentration of compound and the assays were repeated independently three times.

Sequence of full-length human PHD3 (Q9H6Z9 whole entry): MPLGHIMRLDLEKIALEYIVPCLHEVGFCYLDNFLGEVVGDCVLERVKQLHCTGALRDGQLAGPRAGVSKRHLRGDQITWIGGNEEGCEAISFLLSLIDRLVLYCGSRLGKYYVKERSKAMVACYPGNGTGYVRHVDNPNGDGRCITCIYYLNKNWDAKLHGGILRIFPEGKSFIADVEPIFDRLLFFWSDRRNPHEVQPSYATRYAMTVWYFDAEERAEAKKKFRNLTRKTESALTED
Sequence of full-length human PHD1 (Q96KS0 whole entry): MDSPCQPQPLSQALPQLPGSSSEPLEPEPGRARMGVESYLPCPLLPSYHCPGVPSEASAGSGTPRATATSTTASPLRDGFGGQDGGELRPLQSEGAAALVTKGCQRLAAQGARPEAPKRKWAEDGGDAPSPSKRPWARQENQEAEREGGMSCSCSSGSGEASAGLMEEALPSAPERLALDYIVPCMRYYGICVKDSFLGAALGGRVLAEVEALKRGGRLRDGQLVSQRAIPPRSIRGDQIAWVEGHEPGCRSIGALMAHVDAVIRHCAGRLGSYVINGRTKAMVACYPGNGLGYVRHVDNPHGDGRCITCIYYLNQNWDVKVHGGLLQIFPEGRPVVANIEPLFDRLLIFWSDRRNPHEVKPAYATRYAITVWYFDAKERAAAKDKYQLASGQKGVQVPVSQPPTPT

| SMILES | IC50 (full-length human PHD1) [nM] | IC50 (full-length human PHD3; TR-FRET, 35 nM PHD3, 1 μM 2-OG) [nM] | IC50 (full-length human PHD2) [nM] | IC50 (full-length human PHD3) [nM] |
| --- | --- | --- | --- | --- |
| Cc1c(-c2cnn(-c3ccccn3)c2)cnc(C(=O)NCC(=O)O)c1O [Compound 18, (3-Hydroxy-4-methyl-5-(1-(pyridin-2-yl)-1H-pyrazol-4-yl)picolinoyl)glycine] | < 100 | < 100 | < 100 |  |
| Cc1c(-c2cnn(-c3ccc(F)cc3)c2)cnc(C(=O)NCC(=O)O)c1O [Compound 19, (5-(1-(4-Fluorophenyl)-1H-pyrazol-4-yl)-3-hydroxy-4-methylpicolinoyl)glycine] | < 100 | < 100 | < 100 |  |
| Cc1c(-c2cnn(C(C)C)c2)cnc(C(=O)NCC(=O)O)c1O [Compound 20, (3-Hydroxy-5-(1-isopropyl-1H-pyrazol-4-yl)-4-methylpicolinoyl)glycine] | < 100 | < 100 | < 100 |  |
| Cc1c(-c2cnn(C3CCOCC3)c2)cnc(C(=O)NCC(=O)O)c1O [Compound 21, (3-Hydroxy-4-methyl-5-(1-(tetrahydro-2H-pyran-4-yl)-1H-pyrazol-4-yl)picolinoyl)glycine] | < 100 | < 100 | < 100 |  |
| Cc1c(-c2cnn(CC(C)C)c2)cnc(C(=O)NCC(=O)O)c1O [Compound 22, (3-Hydroxy-5-(1-isobutyl-1H-pyrazol-4-yl)-4-methylpicolinoyl)glycine] | < 100 | < 100 | < 100 |  |
| Cc1nc(C(=O)NCC(=O)O)c(O)c(C)c1-c1cnn(-c2ccccc2)c1 [Compound 25, (3-Hydroxy-4,6-dimethyl-5-(1-phenyl-1H-pyrazol-4-yl)picolinoyl)glycine] | < 100 | < 100 | < 100 |  |
| Cc1c(-c2cnc(-c3ccccc3)o2)cnc(C(=O)NCC(=O)O)c1O [Compound 26, (3-hydroxy-4-methyl-5-(2-phenyloxazol-5-yl)picolinoyl)glycine] | < 100 | < 100 | < 100 |  |
| Cc1ccc(-c2cnc(C(=O)NCC(=O)O)c(O)c2C)cn1 [Compound 27, (5-hydroxy-4,6′-dimethyl-[3,3′-bipyridine]-6-carbonyl)glycine] | < 100 |  | < 100 | 100 to 1000 |
| Cc1c(-c2cnc3ccccc3c2)cnc(C(=O)NCC(=O)O)c1O [Compound 28] | < 100 | < 100 | < 100 |  |
| Cc1c(-c2cccc(Cl)c2)cnc(C(=O)NCC(=O)O)c1O [Compound 32, (5-(3-chlorophenyl)-3-hydroxy-4-methylpicolinoyl)glycine] | < 100 | < 100 | < 100 |  |
| Cc1c(-c2ccc3ccccc3c2)cnc(C(=O)NCC(=O)O)c1O [Compound 33, (3-hydroxy-4-methyl-5-(naphthalen-2-yl)picolinoyl)glycine] | < 100 | < 100 | < 100 |  |
| Cc1c(-c2cc(Cl)cc(Cl)c2)cnc(C(=O)NCC(=O)O)c1O [Compound 36, (5-(3,5-dichlorophenyl)-3-hydroxy-4-methylpicolinoyl)glycine] | < 100 | < 100 | < 100 |  |
| Cc1nc(-c2ccccc2)sc1-c1cnc(C(=O)NCC(=O)O)c(O)c1C [Compound 37, (3-hydroxy-4-methyl-5-(4-methyl-2-phenylthiazol-5-yl)picolinoyl)glycine] | < 100 | < 100 | < 100 |  |
| Cc1nn(-c2ccc(F)cc2)cc1-c1cnc(C(=O)NCC(=O)O)c(O)c1C [Compound 38, (5-(1-(4-fluorophenyl)-3-methyl-1H-pyrazol-4-yl)-3-hydroxy-4-methylpicolinoyl)glycine] | < 100 | < 100 | < 100 |  |
| Cc1nn(-c2cccc(F)c2)cc1-c1cnc(C(=O)NCC(=O)O)c(O)c1C [Compound 39, (5-(1-(3-fluorophenyl)-3-methyl-1H-pyrazol-4-yl)-3-hydroxy-4-methylpicolinoyl)glycine] | < 100 | < 100 | < 100 |  |
